Patent publication US12637428B2, “Isoquinoline derivatives as SIK2 inhibitors” (Cancer Research Technology Limited, priority 2019, dated 2026)

Key:
Format in all cases: biochemical
SIK3 = molecular target: T1, SIK3 (Homo sapiens, UniProt Q9Y2K2); experiment: SIK3 kinase assay, IMAP fluorescence polarization; conditions: 50 or 100 μM ATP, average
T1 construct: purchased Life Technologies
Method in brief: (§1)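 Kinases (0.6–13 nM) incubated 60 min at room temperature with 100 nM FAM-Abltide, FAM-Srctide or FAM-HDAC peptide and 50 or 100 μM ATP in 20 mM Tris pH 7.2, 4 mM MgCl2, 0.2% BSA, 2 mM DTT. IMAP binding reagent (85:15 buffer A:B; 30:70 for Src) stopped reactions; fluorescence polarization read; compounds tested 0.00005–1 μM.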

EPHA2 = molecular target: T2, EPHA2 (Homo sapiens, UniProt P29317); experiment: EPHA2 kinase assay, IMAP fluorescence polarization; conditions: 50 or 100 μM ATP, Tris pH 8.5, average
T2 construct: purchased Life Technologies

SIK2 = molecular target: T3, SIK2 (Homo sapiens, UniProt Q9H0K1); experiment: SIK2 kinase assay, IMAP fluorescence polarization; conditions: 50 or 100 μM ATP, average
T3 construct: purchased Life Technologies
Method in brief: as §1

Abl = molecular target: T4, Abl (Homo sapiens, UniProt P00519); experiment: Abl kinase assay, IMAP fluorescence polarization; conditions: 50 or 100 μM ATP, average
T4 construct: purchased Life Technologies
Method in brief: as §1

SIK1 = molecular target: T5, SIK1 (Homo sapiens, UniProt P57059); experiment: SIK1 kinase assay, IMAP fluorescence polarization; conditions: 50 or 100 μM ATP, average
T5 construct: purchased Life Technologies
Method in brief: as §1

Src = molecular target: T6, Src (Homo sapiens, UniProt P12931); experiment: Src kinase assay, IMAP fluorescence polarization; conditions: 50 or 100 μM ATP, average
T6 construct: purchased Life Technologies
Method in brief: as §1

T1 sequence (Q9Y2K2 whole entry): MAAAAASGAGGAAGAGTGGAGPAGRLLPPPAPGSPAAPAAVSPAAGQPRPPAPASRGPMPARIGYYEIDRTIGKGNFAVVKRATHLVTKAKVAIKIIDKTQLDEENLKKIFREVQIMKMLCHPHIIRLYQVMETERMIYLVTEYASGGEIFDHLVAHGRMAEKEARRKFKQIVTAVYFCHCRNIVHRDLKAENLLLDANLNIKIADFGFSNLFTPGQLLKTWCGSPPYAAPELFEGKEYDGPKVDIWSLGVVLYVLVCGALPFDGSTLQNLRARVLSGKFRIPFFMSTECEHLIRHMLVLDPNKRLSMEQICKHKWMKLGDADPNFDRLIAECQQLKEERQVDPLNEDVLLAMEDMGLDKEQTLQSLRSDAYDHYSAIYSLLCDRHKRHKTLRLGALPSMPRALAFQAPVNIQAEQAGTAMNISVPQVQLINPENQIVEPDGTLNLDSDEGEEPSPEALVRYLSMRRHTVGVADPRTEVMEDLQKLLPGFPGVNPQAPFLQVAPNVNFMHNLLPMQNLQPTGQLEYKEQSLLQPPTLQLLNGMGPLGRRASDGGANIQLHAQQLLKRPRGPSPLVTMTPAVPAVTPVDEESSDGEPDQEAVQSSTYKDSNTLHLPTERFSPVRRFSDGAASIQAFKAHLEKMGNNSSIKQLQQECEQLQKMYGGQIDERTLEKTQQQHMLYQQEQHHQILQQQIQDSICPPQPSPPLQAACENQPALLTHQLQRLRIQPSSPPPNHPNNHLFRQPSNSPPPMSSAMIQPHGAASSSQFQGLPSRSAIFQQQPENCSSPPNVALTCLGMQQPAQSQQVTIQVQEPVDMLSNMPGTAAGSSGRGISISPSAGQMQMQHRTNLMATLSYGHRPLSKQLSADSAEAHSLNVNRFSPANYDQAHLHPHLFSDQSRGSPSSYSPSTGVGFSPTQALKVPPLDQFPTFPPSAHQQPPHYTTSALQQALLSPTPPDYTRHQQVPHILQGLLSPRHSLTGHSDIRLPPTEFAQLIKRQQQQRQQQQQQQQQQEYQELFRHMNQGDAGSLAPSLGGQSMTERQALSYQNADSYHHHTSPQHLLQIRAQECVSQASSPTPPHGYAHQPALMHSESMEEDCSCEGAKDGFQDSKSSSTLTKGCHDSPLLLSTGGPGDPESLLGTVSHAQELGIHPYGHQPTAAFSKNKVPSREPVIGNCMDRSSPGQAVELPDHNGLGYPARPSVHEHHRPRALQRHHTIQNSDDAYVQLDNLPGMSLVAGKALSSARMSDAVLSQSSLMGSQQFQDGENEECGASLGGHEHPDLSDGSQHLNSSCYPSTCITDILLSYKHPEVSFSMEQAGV
T3 sequence (Q9H0K1 whole entry): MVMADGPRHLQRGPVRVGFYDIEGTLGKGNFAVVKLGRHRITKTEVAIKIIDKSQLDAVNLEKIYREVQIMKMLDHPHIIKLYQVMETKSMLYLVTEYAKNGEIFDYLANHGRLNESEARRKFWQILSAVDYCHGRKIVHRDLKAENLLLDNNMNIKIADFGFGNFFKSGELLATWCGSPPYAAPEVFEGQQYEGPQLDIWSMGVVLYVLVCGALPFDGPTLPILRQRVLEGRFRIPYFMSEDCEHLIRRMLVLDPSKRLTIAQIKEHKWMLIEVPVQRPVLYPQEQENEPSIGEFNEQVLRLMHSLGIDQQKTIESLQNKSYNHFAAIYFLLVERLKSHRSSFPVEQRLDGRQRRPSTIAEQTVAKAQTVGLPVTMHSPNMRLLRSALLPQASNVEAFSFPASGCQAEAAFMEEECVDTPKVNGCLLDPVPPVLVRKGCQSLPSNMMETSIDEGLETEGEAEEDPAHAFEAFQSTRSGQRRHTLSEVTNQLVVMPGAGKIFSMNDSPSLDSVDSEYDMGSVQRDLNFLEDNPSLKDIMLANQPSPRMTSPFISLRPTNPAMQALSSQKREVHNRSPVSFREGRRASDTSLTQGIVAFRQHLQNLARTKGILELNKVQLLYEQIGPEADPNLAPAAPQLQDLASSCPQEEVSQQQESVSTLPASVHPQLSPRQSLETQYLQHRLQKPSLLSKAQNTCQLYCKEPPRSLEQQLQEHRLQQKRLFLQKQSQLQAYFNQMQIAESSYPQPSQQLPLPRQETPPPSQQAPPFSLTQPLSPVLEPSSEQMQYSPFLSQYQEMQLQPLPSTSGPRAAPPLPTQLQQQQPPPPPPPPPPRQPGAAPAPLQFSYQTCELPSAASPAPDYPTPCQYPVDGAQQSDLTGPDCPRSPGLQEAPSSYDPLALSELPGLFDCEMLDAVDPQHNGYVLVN
T5 sequence (P57059 whole entry): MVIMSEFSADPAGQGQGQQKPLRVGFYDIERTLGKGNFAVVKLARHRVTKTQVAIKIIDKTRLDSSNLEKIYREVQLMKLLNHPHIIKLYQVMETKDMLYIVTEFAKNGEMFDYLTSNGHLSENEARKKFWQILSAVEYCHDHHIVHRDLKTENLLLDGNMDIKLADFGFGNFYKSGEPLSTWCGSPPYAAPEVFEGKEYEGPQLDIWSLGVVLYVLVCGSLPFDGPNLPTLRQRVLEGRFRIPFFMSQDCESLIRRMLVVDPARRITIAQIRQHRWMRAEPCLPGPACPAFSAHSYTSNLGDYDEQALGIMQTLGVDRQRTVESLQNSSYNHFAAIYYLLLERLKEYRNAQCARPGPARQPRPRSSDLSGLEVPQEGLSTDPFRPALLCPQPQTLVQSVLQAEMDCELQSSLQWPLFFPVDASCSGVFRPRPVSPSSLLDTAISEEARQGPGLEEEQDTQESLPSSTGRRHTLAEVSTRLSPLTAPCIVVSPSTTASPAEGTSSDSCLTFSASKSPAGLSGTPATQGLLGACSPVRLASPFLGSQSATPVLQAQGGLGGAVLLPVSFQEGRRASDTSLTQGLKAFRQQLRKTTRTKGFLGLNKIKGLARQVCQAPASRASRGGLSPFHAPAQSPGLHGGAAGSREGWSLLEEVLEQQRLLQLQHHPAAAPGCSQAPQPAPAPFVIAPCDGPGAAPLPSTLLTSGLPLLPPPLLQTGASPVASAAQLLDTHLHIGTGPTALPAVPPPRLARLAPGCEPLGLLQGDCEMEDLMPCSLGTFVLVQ
T6 sequence (P12931 whole entry): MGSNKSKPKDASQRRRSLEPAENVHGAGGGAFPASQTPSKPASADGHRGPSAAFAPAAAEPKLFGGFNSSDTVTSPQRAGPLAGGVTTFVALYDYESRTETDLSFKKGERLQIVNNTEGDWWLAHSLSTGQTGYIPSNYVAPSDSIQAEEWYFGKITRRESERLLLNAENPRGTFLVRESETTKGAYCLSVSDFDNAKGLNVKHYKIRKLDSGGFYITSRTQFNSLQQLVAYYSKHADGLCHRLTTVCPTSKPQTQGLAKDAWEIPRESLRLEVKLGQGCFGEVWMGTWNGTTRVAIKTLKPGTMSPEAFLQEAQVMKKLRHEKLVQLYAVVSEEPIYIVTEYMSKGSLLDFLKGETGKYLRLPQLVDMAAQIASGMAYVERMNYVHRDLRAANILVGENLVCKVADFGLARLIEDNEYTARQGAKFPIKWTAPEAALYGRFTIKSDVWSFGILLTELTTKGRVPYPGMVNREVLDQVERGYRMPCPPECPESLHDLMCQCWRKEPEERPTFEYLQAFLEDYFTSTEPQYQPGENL
T4 sequence (P00519 whole entry): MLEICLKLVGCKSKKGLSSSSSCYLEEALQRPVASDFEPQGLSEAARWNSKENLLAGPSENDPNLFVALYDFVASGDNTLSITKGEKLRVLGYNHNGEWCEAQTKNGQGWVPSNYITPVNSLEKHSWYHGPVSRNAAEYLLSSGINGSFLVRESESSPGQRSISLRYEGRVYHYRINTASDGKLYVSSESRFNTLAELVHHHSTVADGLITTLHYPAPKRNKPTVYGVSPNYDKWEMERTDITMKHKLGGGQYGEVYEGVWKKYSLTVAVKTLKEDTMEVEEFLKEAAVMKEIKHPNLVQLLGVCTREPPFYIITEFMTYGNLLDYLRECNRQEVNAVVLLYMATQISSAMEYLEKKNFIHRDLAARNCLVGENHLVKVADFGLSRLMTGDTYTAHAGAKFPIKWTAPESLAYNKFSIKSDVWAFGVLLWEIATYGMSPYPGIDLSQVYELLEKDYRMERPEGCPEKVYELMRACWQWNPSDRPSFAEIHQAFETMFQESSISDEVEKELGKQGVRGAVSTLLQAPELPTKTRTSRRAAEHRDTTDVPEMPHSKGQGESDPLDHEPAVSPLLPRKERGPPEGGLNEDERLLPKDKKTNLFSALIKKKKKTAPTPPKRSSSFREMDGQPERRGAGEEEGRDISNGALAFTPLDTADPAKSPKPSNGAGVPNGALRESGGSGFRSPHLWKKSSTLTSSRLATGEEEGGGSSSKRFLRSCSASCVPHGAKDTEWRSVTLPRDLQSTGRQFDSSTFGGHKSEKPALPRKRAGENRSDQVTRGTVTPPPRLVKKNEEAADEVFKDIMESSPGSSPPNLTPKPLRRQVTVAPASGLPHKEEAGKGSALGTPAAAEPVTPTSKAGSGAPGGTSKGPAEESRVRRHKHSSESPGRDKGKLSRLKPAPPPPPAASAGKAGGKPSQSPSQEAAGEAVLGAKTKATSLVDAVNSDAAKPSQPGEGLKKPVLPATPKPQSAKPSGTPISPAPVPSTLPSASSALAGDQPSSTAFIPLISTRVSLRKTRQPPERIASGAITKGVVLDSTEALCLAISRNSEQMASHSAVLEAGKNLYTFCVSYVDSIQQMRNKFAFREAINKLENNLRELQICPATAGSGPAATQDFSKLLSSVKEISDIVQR

| Ki (SIK3) [nM] | Ki (EPHA2) [nM] | Ki (SIK2) [nM] | Ki (Abl) [nM] | Ki (SIK1) [nM] | Ki (Src) [nM] | Compound |
| --- | --- | --- | --- | --- | --- | --- |
| 0.312 | 30.7 | 0.0936 | 7.99 | 0.361 | 65.3 | Cc1cccc(F)c1-c1cc2cnc(N)cc2c(NC2CCN(C)CC2)c1F [Example 135, 6-Fluoro-7-(2-fluoro-6-methyl-phenyl)-N5-(1-methyl-4-piperidyl)isoquinoline-3,5-diamine] |
| 8.89 | 260 | 1.1 | 27.6 | 1.9 | 147 | Cc1cccc(F)c1-c1cc(NC(=O)C2CCNC2)c2cc(N)ncc2c1 (stereo not drawn) [Example 136, N-[3-amino-7-(2-fluoro-6-methyl-phenyl)-5-isoquinolyl] pyrrolidine-3-carboxamide] |
| 0.51 | 9.22 | 0.0693 | 22.5 | 0.296 | 18.7 | Cc1cccc(Cl)c1-c1cc(NC2CCNCC2)c2nc(N)ncc2c1 [Example 137, 6-(2-chloro-6-methyl-phenyl)-N8-(4-piperidyl)quinazoline-2,8-diamine] |
| 15.7 | 93.4 | 3.12 | 545 | 3.7 | 333 | Cc1cccc(Cl)c1-c1cc(NC2CCNCC2)c2ncncc2c1 [Example 138, 6-(2-chloro-6-methyl-phenyl)-N-(4-piperidyl)quinazolin-8-amine] |
